These results are taken from patent publication US4882316A, “Pyrimidine derivatives” (Hoffmann-La Roche Inc., priority 1986, dated 1989).

The assay concerns the target herpes simplex virus type 2 (HSV-2) thymidine kinase (Human herpesvirus 2, UniProt P89446). The assay can be described thus: inhibition of herpes simplex virus type 2 (HSV-2) thymidine kinase in vitro (3H-thymidine phosphorylation). In kind it is biochemical. Particulars: thymidine kinase extract; 50 mM Tris-HCl, pH 8; 5 mM MgCl2; 5 mM ATP; 0.3 μM 3H-thymidine; 37° C., 30 minutes; read-out: IC50 (concentration of the test compound which inhibits enzyme activity by 50%). Here is the method: The assay mixture contains 50 mM Tris-HCl, pH 8, 5 mM magnesium chloride, 5 mM ATP, 0.3 μM ^3 H-thymidine (50 Ci/mmol), suitably diluted thymidine kinase extract and various concentrations of the test compounds in a total volume of 100 μl. Assays are incubated at 37° C. for 30 minutes and the reaction is terminated by immersion in a boiling water bath for 2 minutes. 85 μl aliquots from each assay are then dried on cellulose paper discs and the unphosphorylated ^3 H-thymidine is removed by washing in 4 mM ammonium formate. The radioactivity remaining bound to the discs is then measured by scintillation spectrophotometry. The degree of inhibition at each concentration of the test compound is expressed as a percentage of a control reaction. The IC50 value, namely the concentration of the test compound which inhibits enzyme activity by 50%, is then calculated. The results obtained with representative compounds of formula I are compiled in the following Table: […]

herpes simplex virus type 2 (HSV-2) thymidine kinase, sequence (P89446 whole entry): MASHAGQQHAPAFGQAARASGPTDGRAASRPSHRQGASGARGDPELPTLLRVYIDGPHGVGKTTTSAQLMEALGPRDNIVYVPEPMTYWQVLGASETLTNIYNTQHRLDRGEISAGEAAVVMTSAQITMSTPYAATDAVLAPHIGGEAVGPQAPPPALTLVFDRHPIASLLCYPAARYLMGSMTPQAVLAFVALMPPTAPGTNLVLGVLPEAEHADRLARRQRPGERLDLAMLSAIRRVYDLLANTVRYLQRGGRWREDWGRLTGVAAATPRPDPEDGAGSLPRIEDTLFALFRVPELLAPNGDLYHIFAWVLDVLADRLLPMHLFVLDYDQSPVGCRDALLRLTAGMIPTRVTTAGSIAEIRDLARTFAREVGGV

Regarding `CCc1cn([C@H]2C[C@H](O)[C@@H](CCC(=O)Cc3c(Cl)cccc3Cl)O2)c(=O)[nH]c1=O` [Example 3, 5'-[3-(2,6-dichlorophenyl)-2-oxopropyl]-2',5'-dideoxy-5-ethyluridine], the IC50 stood at 2.4 nM.

On to `CCc1cn([C@H]2C[C@H](O)[C@@H](CCCCc3ccccc3)O2)c(=O)[nH]c1=O` [Example 7, 2',5'-dideoxy-5-ethyl-5'-(3-phenylpropyl)uridine], for which the IC50 was 170 nM.

As for `CCc1cn([C@H]2C[C@H](O)[C@@H](CS(=O)(=O)Cc3ccccc3)O2)c(=O)[nH]c1=O` [Example 9, 5'-benzylsulphonyl-2',5'-dideoxy-5-ethyluridine], the IC50 came out at 600 nM.

Turning to `CCc1cn([C@H]2C[C@H](O)[C@@H](CSCc3c(Cl)cccc3Cl)O2)c(=O)[nH]c1=O` [Example 14c, 5'-(2,6-dichlorobenzylthio)-2',5'-dideoxy-5-ethyluridine], the IC50 came out at 72 nM.

With `CCc1cn([C@H]2C[C@H](O)[C@@H](CCC(O)Cc3c(Cl)cccc3Cl)O2)c(=O)[nH]c1=O` (mixture of isomers) [Example 5, 5'-[3-(2,6-dichlorophenyl)-2(RS)-hydroxypropyl]-2',5'-dideoxy-5-ethyluridine], the IC50 was determined as 16 nM.
